Data set [1] is described as follows: Acute toxicity (LD50, Behrens-Karber method). It is filed as in vivo, ICR mice. Particulars: mouse, in vivo, ip, mortality during 30 days. As for the experimental part: Test compounds, dissolved or suspended in 0.5% aqueous CMC, were each intraperitoneally administered to ICR mice in a dose of 0.1 ml per 10 g body weight. LD50 (mg/kg) value of each test compound was calculated from the mortality of mice during 30 days by the Behrens-Karber method.

The next data set deals with Ehrlich acites carcinoma. The experiment in a line: Growth-inhibiting effect against Ehrlich acites carcinoma. It is filed as in vivo, male mice. The conditions noted are these: 5 days; for response vs control in vivo at 3.2 mg/kg: 3.2 mg/kg/day ip; for response vs control in vivo at 6.3 mg/kg: 6.3 mg/kg/day ip; for response vs control in vivo at 25 mg/kg: 25 mg/kg/day ip; for response vs control in vivo at 100 mg/kg: 100 mg/kg/day ip. The essentials:
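Activity graded from T/C% of total packed ascites cell volume on day 7 (treated vs untreated): - 100-66, + 65-41, ++ 40-11, +++ 10-0. Groups of 6 male mice bore 1×10^7 i.p.-implanted cells and received compound (1% Nikkol HCO-60) i.p. daily for 5 days from 24 hrs after implantation.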

For data set [2], the system named is Leukemia L1210. The experiment in a line: Activity against Leukemia L1210, intraperitoneal, increase in life span of mice. The data set is classed as in vivo, female mice (BDF1 family). Particulars: for ED (maximum ILS) / ED30: Mus musculus, L1210, ip, ip once a day for 5 successive days; for ED (maximum ILS): daily dosage giving maximum increase of life span, read-out: O.D. (optimum dosage); for ED30: daily dosage increasing average survival days by 30%, read-out: ILS30; for Survivors after 60 days / Max. ILS % / Therapeutic ratio TR: ip; for Survivors after 60 days: 6-membered group; for Max. ILS %: 60-day observation, versus control; for Therapeutic ratio TR: O.D./ILS30. The essentials:
(§1)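 Mice (female BDF1, 20–23 g) carrying 1×10^5 ip-implanted L1210 cells were given daily ip or oral doses for 5 days; ILS% came from mean survival over 60 days relative to controls.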

Data set [3] has as its system Leukemia L1210. The experiment in a line: Activity against Leukemia L1210, oral, increase in life span of mice. The data set is classed as in vivo, female mice (BDF1 family). The conditions noted are these: for ED (maximum ILS) / ED30: Mus musculus, L1210, oral once a day for 5 successive days; for ED (maximum ILS): daily dosage giving maximum increase of life span, read-out: O.D. (optimum dosage); for ED30: daily dosage increasing average survival days by 30%, read-out: ILS30; for Survivors after 60 days / Max. ILS % / Therapeutic ratio TR: oral; for Survivors after 60 days: 6-membered group; for Max. ILS %: 60-day observation, versus control; for Therapeutic ratio TR: O.D./ILS30. The essentials:
as §1

[4] abbreviates: Mus musculus, Ehrlich, 120 h, read-out: Activity.
Where [5] appears, read: Mus musculus, Ehrlich, 120 h, read-out: T/C %.

Read-outs that look alike come from different tables or passages of the source. Where only a bound is given, the exact number is not on record here.

By LD50 is commonly meant the dose at which mortality reaches 50%.

The molecule `CO[C@H]1O[C@H](CNC(=O)N(CCCl)N=O)[C@@H](O)[C@H](O)[C@H]1O` [Compound 6MCαG, 3-(methyl α-D-glucopyranose-6-yl)-1-(2-chloroethyl)-1-nitrosourea, reference compound] returned an LD50 at 720 h in data set [1] of 40 mg/kg. Also, in the data set on Ehrlich acites carcinoma (12.5 mg/kg/day ip), the “Activity (toxicity in words)” value is reported as “Toxic (2/6)”. In the data set with Ehrlich acites carcinoma (setting [4]), the response vs control in vivo at 3.2 mg/kg lay within 0 to 10% and the response vs control in vivo at 6.3 mg/kg fell in the range of 0 to 10%. Also, in the data set on Ehrlich acites carcinoma (setting [5]), the response vs control in vivo at 3.2 mg/kg came out at 0% and the response vs control in vivo at 6.3 mg/kg was 0%. Further, the response vs control in vivo at 12.5 mg/kg in the data set with Ehrlich acites carcinoma (Mus musculus, Ehrlich, 120 h, 12.5 mg/kg/day ip, read-out: T/C %) amounted to 0%. In the data set with Leukemia L1210 [2], the ED (maximum ILS) worked out at 13.5 mg/kg, the ED30 was 0.53 mg/kg, the “Survivors after 60 days” value was 6/6 and the “Max. ILS %” value is > 700%. For the same molecule, the “Therapeutic ratio TR” value in the data set on Leukemia L1210 [2] is on record as 25.5. In the data set with Leukemia L1210 [3], the ED (maximum ILS) was 16.8 mg/kg, the ED30 amounted to 2.45 mg/kg, the “Survivors after 60 days” value is given as 6/6 and the “Max. ILS %” value is reported as > 700%. The “Therapeutic ratio TR” value in the data set on Leukemia L1210 [3] came to 6.86.

Consider `CC(CN1CCOCC1)O[C@@H]1O[C@H](CN(C(=O)N(CCCl)N=O)C(C)(C)C)[C@@H](O)[C@H](O)[C@H]1O` (stereo partly drawn) [Compound 200, 3-tert-butyl-3-(1-morpholinoisopropyl β-D-glucopyranose-6-yl)-1-(2-chloroethyl)-1-nitrosourea], for which the LD50 at 720 h in data set [1] was determined as 480 mg/kg. Also, in the data set on Ehrlich acites carcinoma (setting [4]), the response vs control in vivo at 25 mg/kg is 0 to 10% and the response vs control in vivo at 100 mg/kg was in the range of 0 to 10%. Also, in the data set on Ehrlich acites carcinoma (setting [5]), the response vs control in vivo at 25 mg/kg came out at 0% and the response vs control in vivo at 100 mg/kg is 0%. In addition, in the data set with Leukemia L1210 [2], the ED (maximum ILS) was determined as 150 mg/kg, the ED30 is 3.11 mg/kg, the “Survivors after 60 days” value was 6/6 and the “Max. ILS %” value is > 700%. Further, in the data set with Leukemia L1210 [2], the “Therapeutic ratio TR” value is on record as 48.2. In the data set with Leukemia L1210 [3], the ED (maximum ILS) stood at 190 mg/kg, the ED30 was found to be 10.1 mg/kg, the “Survivors after 60 days” value is reported as 4/6 and the “Max. ILS %” value is > 460%. For the same molecule, the “Therapeutic ratio TR” value in the data set with Leukemia L1210 [3] worked out at 18.9.

In turn, `CC(C)CN(C[C@H]1O[C@@H](OCC2CCCO2)[C@H](O)[C@@H]1O)C(=O)N(CCCl)N=O` (stereo partly drawn) [Compound 170, 3-isobutyl-3-(tetrahydrofurfuryl β-D-ribofuranose-5-yl)-1-(2-chloroethyl)-1-nitrosourea] yielded an LD50 at 720 h in data set [1] of 505 mg/kg. Also, in the data set with Ehrlich acites carcinoma (setting [4]), the response vs control in vivo at 25 mg/kg was 0 to 10% and the response vs control in vivo at 100 mg/kg lay in the range of 0 to 10%. Besides, in the data set with Ehrlich acites carcinoma (setting [5]), the response vs control in vivo at 25 mg/kg came to 0% and the response vs control in vivo at 100 mg/kg amounted to 0%. In the data set with Leukemia L1210 [2], the ED (maximum ILS) was 160 mg/kg, the ED30 was 3 mg/kg, the “Survivors after 60 days” value was 5/6 and the “Max. ILS %” value is recorded as > 620%. The “Therapeutic ratio TR” value in the data set with Leukemia L1210 [2] worked out at 53.3. Further, in the data set with Leukemia L1210 [3], the ED (maximum ILS) amounted to 190 mg/kg, the ED30 was 13.4 mg/kg, the “Survivors after 60 days” value is recorded as 4/6 and the “Max. ILS %” value is on record as > 440%. For the same molecule, the “Therapeutic ratio TR” value in the data set with Leukemia L1210 [3] was determined as 14.2.

Consider `CCOCCN(C(=O)N(CCCl)N=O)[C@@H]1[C@@H](O)[C@@H](OC2CCCCC2)OC[C@H]1O` [Compound 149, 3-(2-ethoxyethyl)-3-(cyclohexyl α-D-xylopyranose-3-yl)-1-(2-chloroethyl)-1-nitrosourea], for which, in data set [1], the LD50 at 720 h was determined as 540 mg/kg. For the same molecule, in the data set with Ehrlich acites carcinoma (setting [4]), the response vs control in vivo at 25 mg/kg is 0 to 10% and the response vs control in vivo at 100 mg/kg lay in the range of 0 to 10%. Also, in the data set with Ehrlich acites carcinoma (setting [5]), the response vs control in vivo at 25 mg/kg amounted to 0% and the response vs control in vivo at 100 mg/kg amounted to 0%. Further, in the data set on Leukemia L1210 [2], the ED (maximum ILS) worked out at 170 mg/kg, the ED30 came out at 2.9 mg/kg, the “Survivors after 60 days” value is listed as 6/6 and the “Max. ILS %” value was > 700%. Moreover, the “Therapeutic ratio TR” value in the data set on Leukemia L1210 [2] came to 58.6. In the data set with Leukemia L1210 [3], the ED (maximum ILS) came out at 210 mg/kg, the ED30 was 12.8 mg/kg, the “Survivors after 60 days” value is listed as 4/6 and the “Max. ILS %” value was > 440%. Besides, the “Therapeutic ratio TR” value in the data set on Leukemia L1210 [3] worked out at 16.4.

The molecule `CC(C)CO[C@H]1O[C@H](CN(CC2CCCO2)C(=O)N(CCCl)N=O)[C@@H](O)[C@@H](O)[C@@H]1O` (stereo partly drawn) [Compound 140, 3-tetrahydrofurfuryl-3-(isobutyl α-D-altropyranose-6-yl)-1-(2-chloroethyl)-1-nitrosourea] returned an LD50 at 720 h in data set [1] of 540 mg/kg. Also, in the data set on Ehrlich acites carcinoma (setting [4]), the response vs control in vivo at 25 mg/kg was in the range of 0 to 10% and the response vs control in vivo at 100 mg/kg lay within 0 to 10%. In addition, in the data set on Ehrlich acites carcinoma (setting [5]), the response vs control in vivo at 25 mg/kg amounted to 0% and the response vs control in vivo at 100 mg/kg is 0%. Further, in the data set on Leukemia L1210 [2], the ED (maximum ILS) stood at 180 mg/kg, the ED30 came out at 2.8 mg/kg, the “Survivors after 60 days” value is reported as 6/6 and the “Max. ILS %” value was > 700%. Further, the “Therapeutic ratio TR” value with Leukemia L1210 [2] was determined as 64.3. For the same molecule, in the data set with Leukemia L1210 [3], the ED (maximum ILS) was found to be 220 mg/kg, the ED30 was found to be 9.69 mg/kg, the “Survivors after 60 days” value is given as 5/6 and the “Max. ILS %” value is given as > 620%. In addition, the “Therapeutic ratio TR” value in the data set on Leukemia L1210 [3] was found to be 22.7.

For the molecule `COCCN(C[C@H]1O[C@H](OC2CCCCC2)[C@H](O)[C@@H](O)[C@H]1O)C(=O)N(CCCl)N=O` [Compound 101, 3-(2-methoxyethyl)-3-(cyclohexyl α-D-galactopyranose-6-yl)-1-(2-chloroethyl)-1-nitrosourea], in data set [1], the LD50 at 720 h was determined as 660 mg/kg. Moreover, in the data set on Ehrlich acites carcinoma (setting [4]), the response vs control in vivo at 25 mg/kg was 0 to 10% and the response vs control in vivo at 100 mg/kg was in the range of 0 to 10%. In the data set with Ehrlich acites carcinoma (setting [5]), the response vs control in vivo at 25 mg/kg is 0% and the response vs control in vivo at 100 mg/kg is 0%. Besides, in the data set on Leukemia L1210 [2], the ED (maximum ILS) was 200 mg/kg, the ED30 is 3.66 mg/kg, the “Survivors after 60 days” value is 6/6 and the “Max. ILS %” value is on record as > 700%. Further, in the data set on Leukemia L1210 [2], the “Therapeutic ratio TR” value worked out at 54.6. Besides, in the data set with Leukemia L1210 [3], the ED (maximum ILS) is 250 mg/kg, the ED30 was found to be 11.2 mg/kg, the “Survivors after 60 days” value is on record as 4/6 and the “Max. ILS %” value was > 460%. In addition, the “Therapeutic ratio TR” value in the data set on Leukemia L1210 [3] was 22.3.

`CCCCO[C@H]1O[C@H](CN(CC(C)OC)C(=O)N(CCCl)N=O)[C@@H](O)[C@H](O)[C@H]1O` (stereo partly drawn) [Compound 11, 3-(2-methoxy-n-propyl)-3-(n-butyl α-D-glucopyranose-6-yl)-1-(2-chloroethyl)-1-nitrosourea] had an LD50 at 720 h in data set [1] of 495 mg/kg. In addition, in the data set with Ehrlich acites carcinoma (setting [4]), the response vs control in vivo at 25 mg/kg lay within 0 to 10% and the response vs control in vivo at 100 mg/kg was 0 to 10%. Moreover, in the data set on Ehrlich acites carcinoma (setting [5]), the response vs control in vivo at 25 mg/kg came out at 0% and the response vs control in vivo at 100 mg/kg was found to be 0%. In the data set with Leukemia L1210 [2], the ED (maximum ILS) came out at 170 mg/kg, the ED30 was found to be 2.9 mg/kg, the “Survivors after 60 days” value was 6/6 and the “Max. ILS %” value is > 700%. The “Therapeutic ratio TR” value with Leukemia L1210 [2] stood at 58.6. In the data set with Leukemia L1210 [3], the ED (maximum ILS) came to 220 mg/kg, the ED30 was 9.57 mg/kg, the “Survivors after 60 days” value is on record as 6/6 and the “Max. ILS %” value is > 700%. In the data set with Leukemia L1210 [3], the “Therapeutic ratio TR” value amounted to 23.0.

In turn, `O=NN(CCCl)C(=O)N[C@H]1C(O)O[C@H](CO)[C@@H](O)[C@@H]1O` (some centres unmarked) [DCNU, reference compound] showed an LD50 at 720 h in data set [1] of 39 mg/kg. In the data set on Leukemia L1210 [2], the ED (maximum ILS) was 6.2 mg/kg, the ED30 was 0.7 mg/kg, the “Survivors after 60 days” value was 5/6 and the “Max. ILS %” value is > 625%. Also, the “Therapeutic ratio TR” value with Leukemia L1210 [2] is 8.9. Moreover, in the data set with Leukemia L1210 [3], the ED (maximum ILS) was 100 mg/kg, the “Survivors after 60 days” value is given as 0/6 and the “Max. ILS %” value worked out at 20%.
